From publication PMC3776780, “Dual p38/JNK Mitogen Activated Protein Kinase Inhibitors Prevent Ozone-Induced Airway Hyperreactivity in Guinea Pigs” (PLoS ONE, 2013)

Assays:
AurA = molecular target: T1, AurA (Homo sapiens, UniProt O14965); assay: spectrophotometric coupled-enzyme kinase inhibition assay; assay type: biochemical; conditions: read-out: Ki or IC50 AurA
T1 sequence (O14965 1-403): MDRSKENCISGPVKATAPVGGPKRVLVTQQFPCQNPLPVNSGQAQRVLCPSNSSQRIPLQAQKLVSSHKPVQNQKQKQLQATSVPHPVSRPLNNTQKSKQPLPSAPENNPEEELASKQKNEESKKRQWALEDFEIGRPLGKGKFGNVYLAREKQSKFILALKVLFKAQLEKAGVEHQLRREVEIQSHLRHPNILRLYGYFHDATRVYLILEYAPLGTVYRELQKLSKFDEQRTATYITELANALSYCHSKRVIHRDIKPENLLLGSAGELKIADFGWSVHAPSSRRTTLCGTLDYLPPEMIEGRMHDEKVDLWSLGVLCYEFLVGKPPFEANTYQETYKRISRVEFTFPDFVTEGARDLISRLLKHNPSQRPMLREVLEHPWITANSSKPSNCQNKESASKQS
Experimental: (§1) Affinity was measured using a kinase inhibition assay. Compounds were assayed for the inhibition of various kinases using a modification of a spectrophotometric coupled-enzyme assay. In this assay, a fixed concentration of activated kinase (10–40 nM) was incubated with various concentrations of a potential inhibitor dissolved in DMSO for 10 minutes at 30°C in a buffer containing 0.1 M HEPES, pH 7.5, containing 10 mM MgCl2, 2.5 mM phosphoenolpyruvate, 200 µM NADH, 2 mM DTT, 30 µg/mL pyruvate kinase, 10 µg/mL lactate dehydrogenase, and 200 µM–500 µM EGF receptor peptide. The EGF receptor peptide has the sequence […]. The reaction was initiated by the addition of ATP equal to the ATP Km of the kinase, and the assay plate is inserted into the spectrophotometer’s assay plate compartment that was maintained at 30°C. The decrease of absorbance at 340 nm was monitored as a function of time for 10 minutes. The rate data as a function of inhibitor concentration was either fit as an IC50 or to a competitive inhibition kinetic model to determine the compound Ki (see table 1).

MKK4 = molecular target: T2, MKK4 (Homo sapiens, UniProt P45985); assay: as above; assay type: biochemical; conditions: read-out: Ki or IC50 MKK4
T2 sequence (P45985 1-399): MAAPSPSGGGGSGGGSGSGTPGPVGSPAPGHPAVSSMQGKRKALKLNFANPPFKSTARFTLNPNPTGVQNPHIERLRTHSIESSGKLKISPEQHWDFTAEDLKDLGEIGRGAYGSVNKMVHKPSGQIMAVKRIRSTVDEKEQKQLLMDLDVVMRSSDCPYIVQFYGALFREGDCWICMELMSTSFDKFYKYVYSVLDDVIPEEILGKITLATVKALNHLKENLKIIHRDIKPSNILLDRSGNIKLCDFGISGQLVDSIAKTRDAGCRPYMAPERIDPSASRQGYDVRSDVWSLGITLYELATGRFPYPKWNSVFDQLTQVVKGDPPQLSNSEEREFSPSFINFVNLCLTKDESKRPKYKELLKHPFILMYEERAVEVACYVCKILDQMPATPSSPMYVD
Experimental: as §1

IGF1R = IGF1R (Homo sapiens, UniProt P08069); assay: as above; assay type: biochemical; conditions: read-out: Ki or IC50 IGF1R
Experimental: as §1

PRAK = molecular target: T3, PRAK (Homo sapiens, UniProt Q8IW41); assay: as above; assay type: biochemical; conditions: read-out: Ki or IC50 PRAK
T3 sequence (Q8IW41 1-473): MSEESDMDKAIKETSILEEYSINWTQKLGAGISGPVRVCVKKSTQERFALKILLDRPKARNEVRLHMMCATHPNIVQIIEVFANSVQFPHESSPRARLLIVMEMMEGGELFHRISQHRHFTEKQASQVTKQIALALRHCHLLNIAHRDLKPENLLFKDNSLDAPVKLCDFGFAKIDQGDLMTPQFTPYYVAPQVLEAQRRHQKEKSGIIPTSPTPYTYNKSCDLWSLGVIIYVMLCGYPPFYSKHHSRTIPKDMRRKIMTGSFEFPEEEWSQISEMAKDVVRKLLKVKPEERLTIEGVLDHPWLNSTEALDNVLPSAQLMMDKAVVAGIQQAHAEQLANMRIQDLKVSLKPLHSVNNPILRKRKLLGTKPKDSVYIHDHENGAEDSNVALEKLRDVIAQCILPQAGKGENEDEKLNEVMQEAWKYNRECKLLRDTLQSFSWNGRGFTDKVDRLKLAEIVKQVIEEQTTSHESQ
Experimental: as §1

[1] = tested on: M3 muscarinic receptor function on airway smooth muscle; assay: smooth muscle M3 muscarinic receptor function (bronchoconstriction to intravenous acetylcholine); assay type: in vivo, guinea pigs; conditions: acetylcholine 1–10 µg/kg iv; for effect on ozone-induced potentiation of bronchoconstriction to intravenous acetylcholine: ozone-exposed, 30 mg/kg ip 1 h before ozone
Experimental: (§2) Guinea pigs were exposed to 2 ppm ozone or filtered air for 4 hours as described previously. Physiological measurements, airway inflammation, and histological measurements were made one day after a single ozone exposure.
(§3) Animals were given 30 mg/kg intraperitoneally of the dual p38 and JNK MAPK inhibitors V-05-013, V-05-014, or V-05-015 (Vertex Pharmaceuticals, Cambridge, MA) one hour before ozone exposure (Figure 1). These compounds were chosen because of their overall kinase selectivity profile. […] Inhibitors were dissolved in 25% DMSO in phosphate buffered saline (PBS). Air exposed control animals were given 25% DMSO in PBS one hour before ozone exposure.
Recovery from vagal stimulation was confirmed by pulmonary inflation pressure and heart rate returning to baseline before measuring smooth muscle M3 muscarinic receptor function (5–10 minutes after cessation of vagal stimulation). In vagotomized guinea pigs, M3 muscarinic receptor function on airway smooth muscle was tested by measuring bronchoconstriction after administration of acetylcholine (1–10 µg/kg iv, Sigma-Aldrich).

[2] = baseline cardiovascular and pulmonary parameters one day after ozone or air exposure; assay type: in vivo, guinea pigs; conditions: ozone-exposed (2 ppm, 4 h), inhibitor 30 mg/kg ip 1 h before, one day post-exposure, mean ± SEM
Experimental: as §2, §3
One day after exposure to ozone, guinea pigs were anesthetized with 1.9 g/kg urethane i.p. (Sigma-Aldrich, St. Louis, MO). This dose produces a deep anesthesia lasting 8–10 hours though no experiments lasted longer than 4 hours.
(§4) Physiological measurements were made as previously described. The jugular veins were cannulated for intravenous administration of drugs and the right carotid artery was cannulated to measure heart rate and blood pressure. Both vagus nerves were cut and distal ends placed on platinum electrodes submerged in liquid paraffin. Animals were tracheostomized, ventilated (1 ml/100 g body weight, 100 breaths per minute) and paralyzed with a constant infusion of succinylcholine (10 µg/kg/min iv, Sigma-Aldrich). Pulmonary inflation pressure was measured at the trachea and bronchoconstriction was measured as the increase in pressure over basal inflation pressure produced by the ventilator.

[3] = tested on: vagally mediated falls in heart rate; assay: falls in heart rate in response to vagal stimulation; assay type: in vivo, guinea pigs; conditions: ozone-exposed, 30 mg/kg ip 1 h before ozone
Experimental: as §2, §3, §4
Electrical stimulation of both vagus nerves (10V, 0.2 ms pulse width, 1–25 Hz, 5 sec duration at 1 minute intervals) produced frequency dependent bronchoconstriction and bradycardia due to release of acetylcholine onto muscarinic receptors.

Chain of IGF1R (P08069 31-1367, species assumed): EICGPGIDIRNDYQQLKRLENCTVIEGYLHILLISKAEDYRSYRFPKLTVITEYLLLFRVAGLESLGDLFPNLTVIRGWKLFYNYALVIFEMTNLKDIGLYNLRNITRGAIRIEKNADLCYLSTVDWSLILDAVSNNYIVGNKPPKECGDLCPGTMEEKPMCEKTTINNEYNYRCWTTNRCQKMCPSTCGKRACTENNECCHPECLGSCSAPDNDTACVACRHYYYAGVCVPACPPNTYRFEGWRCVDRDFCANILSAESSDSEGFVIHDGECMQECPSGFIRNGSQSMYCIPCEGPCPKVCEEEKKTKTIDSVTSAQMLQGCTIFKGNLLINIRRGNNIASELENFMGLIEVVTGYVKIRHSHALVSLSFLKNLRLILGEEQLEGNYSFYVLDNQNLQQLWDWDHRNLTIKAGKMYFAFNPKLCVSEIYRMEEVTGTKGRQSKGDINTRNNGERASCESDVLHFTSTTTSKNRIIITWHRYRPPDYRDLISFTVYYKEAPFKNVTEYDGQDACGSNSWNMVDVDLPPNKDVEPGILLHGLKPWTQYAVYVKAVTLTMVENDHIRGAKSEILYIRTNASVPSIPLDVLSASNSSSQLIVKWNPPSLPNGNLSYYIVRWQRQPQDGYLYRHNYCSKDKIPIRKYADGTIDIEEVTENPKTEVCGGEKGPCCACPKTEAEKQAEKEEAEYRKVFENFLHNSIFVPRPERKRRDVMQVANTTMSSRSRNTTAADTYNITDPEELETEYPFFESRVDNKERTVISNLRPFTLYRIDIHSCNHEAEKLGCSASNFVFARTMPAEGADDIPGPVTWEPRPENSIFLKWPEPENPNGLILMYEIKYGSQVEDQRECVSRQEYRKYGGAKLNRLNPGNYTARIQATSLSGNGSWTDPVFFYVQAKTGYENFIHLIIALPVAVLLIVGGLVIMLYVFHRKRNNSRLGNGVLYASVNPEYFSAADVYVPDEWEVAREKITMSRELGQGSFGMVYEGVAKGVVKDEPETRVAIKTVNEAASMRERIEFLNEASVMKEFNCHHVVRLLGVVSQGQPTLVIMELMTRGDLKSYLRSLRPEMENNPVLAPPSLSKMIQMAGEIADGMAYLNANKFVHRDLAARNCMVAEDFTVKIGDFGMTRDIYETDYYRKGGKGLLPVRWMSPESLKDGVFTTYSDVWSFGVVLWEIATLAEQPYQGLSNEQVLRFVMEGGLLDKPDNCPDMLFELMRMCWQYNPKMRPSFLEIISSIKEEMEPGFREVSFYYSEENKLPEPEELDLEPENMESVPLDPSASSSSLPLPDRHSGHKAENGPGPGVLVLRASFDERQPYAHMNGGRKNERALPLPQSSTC

OC1CCN(Cc2onc(-c3ccc(F)cc3)c2-c2ccnc(NC3CCCCC3)n2)CC1 [V-05-013]
Ki (AurA): > 1000 nM | Ki (MKK4): > 1000 nM | Ki (IGF1R): > 1000 nM | Ki (PRAK): > 1000 nM | effect on ozone-induced potentiation of bronchoconstriction to intravenous acetylcholine [1]: not blocked | Pulmonary Inflation Pressure (baseline) [2]: 190±15 ^‡ mmH2O | effect on ozone-induced potentiation of vagally mediated falls in heart rate [3]: prevented the ozone-induced potentiation of frequency induced falls in heart rate

OC[C@@H]1CCCN1Cc1onc(-c2ccc(F)cc2)c1-c1ccnc(NC2CCCCC2)n1 [V-05-014]
Ki (AurA): > 1000 nM | Ki (MKK4): > 1000 nM | Ki (IGF1R): > 1000 nM | Ki (PRAK): > 1000 nM | effect on ozone-induced potentiation of bronchoconstriction to intravenous acetylcholine [1]: not blocked | Pulmonary Inflation Pressure (baseline) [2]: 225±5 mmH2O | effect on ozone-induced potentiation of vagally mediated falls in heart rate [3]: prevented the ozone-induced potentiation of frequency induced falls in heart rate

Fc1ccc(-c2noc(CN3CCCCC3)c2-c2ccnc(NC3CCCCC3)n2)cc1 [V-05-015]
Ki (AurA): > 1000 nM | Ki (MKK4): > 1000 nM | Ki (IGF1R): > 1000 nM | Ki (PRAK): > 1000 nM | bronchoconstriction in response to intravenous acetylcholine ([1]; air-exposed, 30 mg/kg ip): hyperreactive to intravenous acetylcholine | effect on ozone-induced potentiation of bronchoconstriction to intravenous acetylcholine [1]: attenuated ozone-induced smooth muscle hyperreactivity | Pulmonary Inflation Pressure (baseline) [2]: 213±7 mmH2O | effect on ozone-induced potentiation of vagally mediated falls in heart rate [3]: prevented the ozone-induced potentiation of frequency induced falls in heart rate
